Data from patent US9023821B2, “Use of MicroRNA for treating diseases associated with a dysfunction of the cilia in multiciliated epithelial cells” (Centre National de la Recherche Scientifique, priority 2009, dated 2015).

How the values were obtained:
[1] = test system: human airway epithelial cells (HAECs); assay: Agilent miRNA chips, miRNA expression at four stages of differentiation of HAECs; conditions: for Modulation (ratio of the level of intensity of expression in log2 in two stages of differentiation) measured with the Agilent chips, D7 − D0 / Modulation (ratio of the level of intensity of expression in log2 in two stages of differentiation) measured with the Agilent chips, FC − D7 / Modulation (ratio of the level of intensity of expression in log2 in two stages of differentiation) measured with the Agilent chips, WD − D0 / Modulation (ratio of the level of intensity of expression in log2 in two stages of differentiation) measured with the Agilent chips, WD − FC / Level of intensity of expression in log2 measured with the Agilent chips, D0 / Level of intensity of expression in log2 measured with the Agilent chips, D7 / Level of intensity of expression in log2 measured with the Agilent chips, FC / Level of intensity of expression in log2 measured with the Agilent chips, WD: Table VI; for Modulation (ratio of the level of intensity of expression in log2 at two stages of differentiation), FC − D7 / Modulation (ratio of the level of intensity of expression in log2 at two stages of differentiation), WD − FC: Agilent miRNA chips, Table V; for Level of intensity of expression in log2 measured with the Agilent chips, D0: stage D0; for Level of intensity of expression in log2 measured with the Agilent chips, D7: stage D7; for Level of intensity of expression in log2 measured with the Agilent chips, FC: stage FC; for Level of intensity of expression in log2 measured with the Agilent chips, WD: stage WD
Text: In parallel with the high-throughput sequencing of the microRNAs, the repertoire of expression of the microRNAs (microRNAome) is investigated using the technology of Agilent® microRNA chips. For this, RNA samples from the same patients as before were used, labeled and hybridized on Agilent® miRNA chips (Human miRNA Microarray v2, containing 866 human miRNAs and 89 human viral miRNAs, i.e. all the human miRNAs contained and referenced in Sanger miRBase v.12.0, Agilent Technologies, France) using the “miRNA labeling and hybridization” kit, following the supplier's instructions (Agilent Technologies).
The inventors then used the Agilent miRNA chips to investigate the repertoire of expression of the miRNAs of the human airway epithelium and compare the results obtained in high-throughput sequencing with those obtained with Agilent® commercial miRNA chips.

[2] = test system: basal cells and pyramidal cells of the airway epithelium; assay: miRNA expression in sorted basal cells versus pyramidal cells (ciliated + secretory), HTS and Agilent chips; parameters: species or system human; conditions: for Modulation of expression of the miRNAs in pyramidal cells (323(−)) relative to basal cells 323(+): HTS and Agilent chips; for Intensity of the level of expression in log2 in pyramidal cells (323(−)): pyramidal cells (ciliated + secretory)
Protocol: After dissociation of the stroma of nasal polyps, the epithelial cells (about 20.10^6) are incubated in PBS-BSA-EDTA for 30 min and then incubated with labeled antibody CD151-PE and anti-TF (tissue factor)-FITC for 20 min, 4° C. (see Hajj, R. et al., Stem Cells 25, 139-148 (2007)). After washing twice, the cells are taken up in PBS-EDTA and incubated with DAPI for labeling the cells whose integrity has been altered.
Cell sorting was carried out on the FACSAria sorter (BD Biosciences) equipped with 3 lasers, blue, red and violet. Dead cells, aggregates and double cells were excluded. The doubly positive population of basal cells (CD151+/FT+) and the negative population of cylindrical cells (containing ciliated cells and mucus-secreting cells) (CD151−/FT−) were selected and sorted at a rate of 5000 events/s ([…]). The purity and identity of the sorted cells were then verified by cytometry and immunocytochemistry.
Like the native airway epithelium, the model of differentiation in vitro used in these tests consists of basal cells, ciliated cells and mucus-secreting cells. In order to identify the repertoires of the miRNAs specific to each of the cellular types, the inventors used cell sorting by flow cytometry by means of specific markers (Hajj, R. et al. 2007). Using this technique, adult airway progenitor cells (corresponding a priori to basal cells) were isolated, selected and sorted (such cells appear doubly positive for tetraspanin CD151 and for the tissue factor) from the pyramidal cells (i.e. ciliated cells and mucus-secreting cells) which appear negative for these same markers. These were purified from polyps or from nasal conchae obtained from 3 separate donors.
After extracting the total RNAs, the expression profiles of the miRNAs were established by means of Agilent® commercial chips or by high-throughput sequencing (HTS). […] For the first time, the inventors thus attribute a repertoire of expression of the miRNAs specifically to separate cellular types of the airway epithelium during differentiation.

[3] = test system: human airway epithelial cells (HAECs); assay: High-throughput sequencing (HTS) of miRNAs at four stages of differentiation of HAECs; conditions: for Modulation (ratio of the level of intensity of expression in log2 in two stages of differentiation) measured by high-throughput sequencing, D7 − D0 / Modulation (ratio of the level of intensity of expression in log2 in two stages of differentiation) measured by high-throughput sequencing, FC − D7 / Modulation (ratio of the level of intensity of expression in log2 in two stages of differentiation) measured by high-throughput sequencing, WD − D0 / Modulation (ratio of the level of intensity of expression in log2 in two stages of differentiation) measured by high-throughput sequencing, WD − FC / Level of intensity of expression in log2 measured by high-throughput sequencing, D0 / Level of intensity of expression in log2 measured by high-throughput sequencing, D7 / Level of intensity of expression in log2 measured by high-throughput sequencing, FC / Level of intensity of expression in log2 measured by high-throughput sequencing, WD: Table VI; for Level of intensity of expression in log2 At the differentiated stage (WD) measured in HTS: healthy human airway epithelial tissue; for Level of intensity of expression in log2 measured by high-throughput sequencing, D0: stage D0; for Level of intensity of expression in log2 measured by high-throughput sequencing, D7: stage D7; for Level of intensity of expression in log2 measured by high-throughput sequencing, FC: stage FC; for Level of intensity of expression in log2 At the differentiated stage (WD) measured in HTS / Level of intensity of expression in log2 measured by high-throughput sequencing, WD: stage WD
Text: The total RNAs were extracted from HAECs cultivated at the air-liquid interface at four stages of differentiation: ALI-D0 (0 day), ALI-D7 (7 days), ALI-FC (during appearance of the first cilia at about 14 days) and ALI-WD (wholly differentiated at about 21 days). The cells are lysed in reagent with Trizol® (Invitrogen). The total RNAs containing small RNAs and microRNAs are purified on Qiagen RNEasy columns (Qiagen) according to the supplier's instructions.
The total RNAs containing small RNAs and microRNAs are isolated as before. The procedure is based on the Applied Biosystems Ligase-Enhanced Genome Detection technology (LEGenD™); the SOLiD™ Small RNA Expression kit (Applied Biosystems, France) was used. With this method it is possible to convert the small RNAs of a sample into a library of double-stranded DNA; it was developed by Applied Biosystems SOLiD™ System for a new generation of high-throughput sequencing.
The high-throughput sequencing of the microRNAs was carried out according to the supplier's recommendations. Briefly, the total RNAs containing the small RNAs are hybridized (65° C., 10 min, then at 16° C., 5 min) and ligated (16° C., 2-16 h in a thermocycler) with the Adaptor Mix A for producing a matrix for sequencing the 5′ end of the small RNAs, or with the Adaptor Mix B for sequencing the 3′ end. The samples are then reverse-transcribed (42° C., 30 min) to synthesize the complementary DNA (cDNA). The library of small RNAs is amplified by PCR and after migration on polyacrylamide gel the amplified small RNAs are cut out and extracted from the gel according to their size (length of about 105-150 bases, according to the supplier's instructions), eluted and resuspended in nuclease-free water. The concentration of nucleic acids is then measured and normalized before proceeding with preparation of the samples for sequencing.
For each microRNA sequenced, the number of sequences of the 5p strand and of the 3p strand of the microRNA was normalized to 10^6 sequences and converted to percentage abundance of expression for each of the microRNAs. The data were then normalized according to a linear model and an empirical Bayesian method using software R. For subsequent analyses, only the microRNAs were retained for which the percentage expression (or abundance) is greater than 1% of the total of the microRNAs in at least one culture condition, with a |Log2 Ratio| below 0.5 and an adjusted P-value below 0.05.

Substance | Modulation (ratio of the level of intensity of expression in log2 in two stages of differentiation) measured with the Agilent chips, D7 − D0 [1] | Modulation (ratio of the level of intensity of expression in log2 at two stages of differentiation), FC − D7 [1] | Modulation (ratio of the level of intensity of expression in log2 in two stages of differentiation) measured with the Agilent chips, FC − D7 [1] | Modulation (ratio of the level of intensity of expression in log2 in two stages of differentiation) measured with the Agilent chips, WD − D0 [1] | Modulation (ratio of the level of intensity of expression in log2 at two stages of differentiation), WD − FC [1] | Modulation (ratio of the level of intensity of expression in log2 in two stages of differentiation) measured with the Agilent chips, WD − FC [1] | Level of intensity of expression in log2 measured with the Agilent chips, D0 [1] | Level of intensity of expression in log2 measured with the Agilent chips, D7 [1] | Level of intensity of expression in log2 measured with the Agilent chips, FC [1] | Level of intensity of expression in log2 measured with the Agilent chips, WD [1] | Modulation of expression of the miRNAs in pyramidal cells (323(−)) relative to basal cells 323(+) [2] | Intensity of the level of expression in log2 in basal cells (323(+)) [2] | Intensity of the level of expression in log2 in pyramidal cells (323(−)) [2] | Modulation (ratio of the level of intensity of expression in log2 in two stages of differentiation) measured by high-throughput sequencing, D7 − D0 [3] | Modulation (ratio of the level of intensity of expression in log2 in two stages of differentiation) measured by high-throughput sequencing, FC − D7 [3] | Modulation (ratio of the level of intensity of expression in log2 in two stages of differentiation) measured by high-throughput sequencing, WD − D0 [3] | Modulation (ratio of the level of intensity of expression in log2 in two stages of differentiation) measured by high-throughput sequencing, WD − FC [3] | Level of intensity of expression in log2 At the differentiated stage (WD) measured in HTS [3] | Level of intensity of expression in log2 measured by high-throughput sequencing, D0 [3] | Level of intensity of expression in log2 measured by high-throughput sequencing, D7 [3] | further results
hsa-let-7f: human miRNA, SEQ ID No. 161 (UGAGGUAGUAGAUUGUAUAGUU; expressed or natural sequence; listed as Homo sapiens) | 1.63 log2 | −0.73 log2 | −0.73 log2 | 1.08 log2 | 0.17 log2 | 0.17 log2 | 11.11 log2 | 12.75 log2 | 12.01 log2 | 12.19 log2 | −0.94 | 10.82 log2 | 9.88 log2 | 0.22 log2 | −0.56 log2 | 0.11 log2 | 0.45 log2 | 5.35 log2 | 5.24 log2 | 5.46 log2 | Level of intensity of expression in log2 measured by high-throughput sequencing, FC [3]: 4.90 log2; Level of intensity of expression in log2 measured by high-throughput sequencing, WD [3]: 5.35 log2
hsa-let-7g: human miRNA, SEQ ID No. 162 (UGAGGUAGUAGUUUGUACAGUU; expressed or natural sequence; listed as Homo sapiens) | 1.83 log2 | −0.54 log2 | −0.54 log2 | 1.50 log2 | 0.21 log2 | 0.21 log2 | 9.30 log2 | 11.12 log2 | 10.59 log2 | 10.80 log2 | −0.15 | 8.37 log2 | 8.22 log2 | −0.24 log2 | −0.03 log2 | 0.56 log2 | 0.83 log2 | 12.40 log2 | 11.84 log2 | 11.60 log2 | Level of intensity of expression in log2 measured by high-throughput sequencing, FC [3]: 11.57 log2; Level of intensity of expression in log2 measured by high-throughput sequencing, WD [3]: 12.40 log2
hsa-miR-15a: human miRNA, SEQ ID No. 9 (UAGCAGCACAUAAUGGUUUGUG; expressed or natural sequence; listed as Homo sapiens) | 2.36 log2 | −0.39 log2 | −0.39 log2 | 1.87 log2 | −0.10 log2 | −0.10 log2 | 7.74 log2 | 10.10 log2 | 9.71 log2 | 9.61 log2 | −2.10 | 7.86 log2 | 5.75 log2 | 1.41 log2 | −0.19 log2 | 1.57 log2 | 0.35 log2 | 7.68 log2 | 6.11 log2 | 7.52 log2 | Level of intensity of expression in log2 measured by high-throughput sequencing, FC [3]: 7.33 log2; Level of intensity of expression in log2 measured by high-throughput sequencing, WD [3]: 7.68 log2
